Reference: the NIST ThermoML archive (doi:10.1016/j.fluid.2015.12.007)
± gives the expanded uncertainty stated by the source.

Conditions: 101.33 kPa, Liquid; for speed of sound: Sing-around technique in a fixed-path interferometer; for mass density: Vibrating tube method

Structure (SMILES)	speed of sound (293.15 K) [m/s]	mass density (293.15 K) [kg/m3]	speed of sound (298.15 K) [m/s]	mass density (298.15 K) [kg/m3]	speed of sound (303.15 K) [m/s]	mass density (303.15 K) [kg/m3]	speed of sound (308.15 K) [m/s]	mass density (308.15 K) [kg/m3]	speed of sound (313.15 K) [m/s]	mass density (313.15 K) [kg/m3]	speed of sound (318.15 K) [m/s]	mass density (318.15 K) [kg/m3]
CCCC[n+]1ccn(C)c1.O=S(=O)([N-]S(=O)(=O)C(F)(F)F)C(F)(F)F	1238.6 ± 1.2	1440.81 ± 0.23	1227.4 ± 1.2	1435.99 ± 0.23	1216.3 ± 1.2	1431.2 ± 0.22	1205.4 ± 1.2	1426.42 ± 0.22	1194.7 ± 1.2	1421.66 ± 0.22	1184.1 ± 1.2	1416.91 ± 0.22
CCCCn1cc[n+](C)c1.COS(=O)(=O)[O-] [1-butyl-3-methylimidazolium methyl sulfate]	1669.8 ± 3.2	1211.97 ± 2.8	1657.1 ± 3.2	1208.61 ± 2.8	1644.6 ± 3.2	1205.25 ± 2.8	1632.4 ± 3.2	1201.89 ± 2.8	1620.4 ± 3.2	1198.54 ± 2.8	1608.8 ± 3.2	1195.2 ± 2.8
CCCCn1cc[n+](C)c1.F[B-](F)(F)F [1-butyl-3-methylimidazolium tetrafluoroborate]	1576.6 ± 1.2	1204.89 ± 0.15	1564.9 ± 1.2	1201.33 ± 0.15	1553.6 ± 1.2	1197.78 ± 0.15	1542.2 ± 1.2	1194.23 ± 0.15	1530.9 ± 1.2	1190.7 ± 0.15	1520 ± 1.2	1187.18 ± 0.15
CC(O)CO (stereo not drawn) [1,2-propanediol]	1516.4 ± 1.3	1035.73 ± 0.14	1505.9 ± 1.3	1032.03 ± 0.13	1493.3 ± 1.3	1028.31 ± 0.13	1480 ± 1.3	1024.55 ± 0.13	1466.3 ± 1.3	1020.75 ± 0.13	1452.7 ± 1.3	1016.92 ± 0.13
